Assay results as given in ChEMBL document CHEMBL4507261, “Data for DCP probe A-192621” (2021).

Key:
[1] = target: Acetylcholinesterase (Homo sapiens) (UniProt P22303); test: Acetylcholinesterase (h) Eurofins-Cerep enzyme and uptake assay; conditions: Compound concentration 10.0 uM
[2] = target: Sodium/potassium-transporting ATPase (Sus scrofa) (UniProt P05027+P05024+D2WKD8+D2WKD7+F1ST41); test: ATPase (Na+/K+) Eurofins-Cerep enzyme and uptake assay; format: protein-complex assay; conditions: Compound concentration 10.0 uM
[3] = target: T1, Alpha-2B adrenergic receptor (Homo sapiens) (UniProt P18089); test: Alpha2B (h) Eurofins-Cerep binding assay; set-up: ligand concentration 2.5 nM; conditions: filed as antagonist, Compound concentration 10.0 uM
T1 sequence (whole entry): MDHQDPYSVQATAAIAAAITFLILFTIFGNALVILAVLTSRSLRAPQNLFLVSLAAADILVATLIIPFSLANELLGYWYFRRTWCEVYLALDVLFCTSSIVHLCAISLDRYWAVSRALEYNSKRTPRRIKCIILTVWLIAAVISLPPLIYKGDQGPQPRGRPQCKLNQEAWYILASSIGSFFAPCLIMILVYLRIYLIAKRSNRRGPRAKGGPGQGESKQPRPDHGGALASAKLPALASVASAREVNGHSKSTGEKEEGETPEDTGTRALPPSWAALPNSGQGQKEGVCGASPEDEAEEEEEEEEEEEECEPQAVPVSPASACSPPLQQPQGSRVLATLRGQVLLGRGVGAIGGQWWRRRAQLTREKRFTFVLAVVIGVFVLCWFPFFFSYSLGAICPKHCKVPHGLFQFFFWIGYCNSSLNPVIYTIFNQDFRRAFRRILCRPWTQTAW

[4] = target: B2 bradykinin receptor (Homo sapiens) (UniProt P30411); test: B2 (h) Eurofins-Cerep binding assay; set-up: ligand concentration 0.3 nM; conditions: filed as agonist, Compound concentration 10.0 uM
[5] = target: Calcitonin-gene-related peptide receptor, CALCRL/RAMP1 (Homo sapiens) (UniProt O60894+Q16602); test: CGRP (h) Eurofins-Cerep binding assay; format: protein-complex assay; set-up: ligand concentration 0.03 nM; conditions: filed as agonist, Compound concentration 10.0 uM
[6] = target: D(2) dopamine receptor (Homo sapiens) (UniProt P14416); test: D2S (h) Eurofins-Cerep binding assay; set-up: ligand concentration 0.3 nM; conditions: filed as antagonist, Compound concentration 10.0 uM
[7] = target: Sodium-dependent serotonin transporter (Homo sapiens) (UniProt P31645); test: 5-HT transporter (h) Eurofins-Cerep binding assay; set-up: ligand concentration 2 nM; conditions: filed as antagonist, Compound concentration 10.0 uM
[8] = system: Tyrosine-protein kinase ABL1 (Homo sapiens), P00519 [F317I]; conditions: Compound concentration 1000.0 nM
[9] = system: Tyrosine-protein kinase ABL1 (Homo sapiens), P00519 [H396P]; conditions: Compound concentration 1000.0 nM
[10] = target: Atypical kinase COQ8A, mitochondrial (Homo sapiens) (UniProt Q8NI60); conditions: Compound concentration 1000.0 nM
Chain of Atypical kinase COQ8A, mitochondrial (Homo sapiens) (Q8NI60 163-647 limits assumed): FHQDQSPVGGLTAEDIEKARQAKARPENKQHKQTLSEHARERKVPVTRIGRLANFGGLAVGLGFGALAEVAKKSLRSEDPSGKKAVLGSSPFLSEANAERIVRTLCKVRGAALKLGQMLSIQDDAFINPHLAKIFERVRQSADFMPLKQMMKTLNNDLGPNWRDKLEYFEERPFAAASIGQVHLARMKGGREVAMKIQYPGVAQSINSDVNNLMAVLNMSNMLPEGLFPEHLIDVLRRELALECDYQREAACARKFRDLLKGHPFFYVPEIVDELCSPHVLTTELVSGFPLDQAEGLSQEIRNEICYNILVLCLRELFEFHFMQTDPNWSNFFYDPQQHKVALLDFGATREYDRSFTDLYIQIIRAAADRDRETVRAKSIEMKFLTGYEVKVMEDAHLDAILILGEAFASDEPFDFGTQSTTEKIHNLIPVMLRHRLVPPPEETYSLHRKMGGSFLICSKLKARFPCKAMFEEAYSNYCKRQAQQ

[11] = target: 5'-AMP-activated protein kinase catalytic subunit alpha-1 (Homo sapiens) (UniProt Q13131); conditions: Compound concentration 1000.0 nM
Chain of 5'-AMP-activated protein kinase catalytic subunit alpha-1 (Homo sapiens) (Q13131 whole entry, looked up): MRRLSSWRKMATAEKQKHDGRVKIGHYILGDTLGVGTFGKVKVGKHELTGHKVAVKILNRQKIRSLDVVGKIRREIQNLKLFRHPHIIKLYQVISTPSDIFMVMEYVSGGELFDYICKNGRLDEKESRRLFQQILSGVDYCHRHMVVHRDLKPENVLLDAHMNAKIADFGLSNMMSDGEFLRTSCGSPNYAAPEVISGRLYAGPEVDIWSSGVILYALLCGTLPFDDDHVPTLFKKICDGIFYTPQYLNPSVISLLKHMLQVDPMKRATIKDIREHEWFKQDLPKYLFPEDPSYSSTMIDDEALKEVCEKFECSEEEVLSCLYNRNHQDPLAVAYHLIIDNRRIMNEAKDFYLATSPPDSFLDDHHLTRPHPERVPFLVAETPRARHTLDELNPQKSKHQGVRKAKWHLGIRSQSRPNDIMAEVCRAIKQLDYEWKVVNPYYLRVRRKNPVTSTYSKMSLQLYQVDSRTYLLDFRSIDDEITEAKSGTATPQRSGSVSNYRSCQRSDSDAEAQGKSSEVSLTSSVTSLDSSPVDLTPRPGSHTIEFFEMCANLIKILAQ

[12] = target: BMP-2-inducible protein kinase (Homo sapiens) (UniProt Q9NSY1); conditions: Compound concentration 1000.0 nM
[13] = target: Calcium/calmodulin-dependent protein kinase type II subunit gamma (Homo sapiens) (UniProt Q13555); conditions: Compound concentration 1000.0 nM
[14] = target: Cyclin-dependent kinase-like 5 (Homo sapiens) (UniProt O76039); conditions: Compound concentration 1000.0 nM
[15] = target: Serine/threonine-protein kinase Chk1 (Homo sapiens) (UniProt O14757); conditions: Compound concentration 1000.0 nM
[16] = system: Epidermal growth factor receptor (Homo sapiens), P00533 [G719C]; conditions: Compound concentration 1000.0 nM
[17] = target: Receptor tyrosine-protein kinase erbB-2 (Homo sapiens) (UniProt P04626); conditions: Compound concentration 1000.0 nM
[18] = target: Mitogen-activated protein kinase 4 (Homo sapiens) (UniProt P31152); conditions: Compound concentration 1000.0 nM
[19] = target: Tyrosine-protein kinase Fer (Homo sapiens) (UniProt P16591); conditions: Compound concentration 1000.0 nM
Chain of Tyrosine-protein kinase Fer (Homo sapiens) (P16591 whole entry, looked up): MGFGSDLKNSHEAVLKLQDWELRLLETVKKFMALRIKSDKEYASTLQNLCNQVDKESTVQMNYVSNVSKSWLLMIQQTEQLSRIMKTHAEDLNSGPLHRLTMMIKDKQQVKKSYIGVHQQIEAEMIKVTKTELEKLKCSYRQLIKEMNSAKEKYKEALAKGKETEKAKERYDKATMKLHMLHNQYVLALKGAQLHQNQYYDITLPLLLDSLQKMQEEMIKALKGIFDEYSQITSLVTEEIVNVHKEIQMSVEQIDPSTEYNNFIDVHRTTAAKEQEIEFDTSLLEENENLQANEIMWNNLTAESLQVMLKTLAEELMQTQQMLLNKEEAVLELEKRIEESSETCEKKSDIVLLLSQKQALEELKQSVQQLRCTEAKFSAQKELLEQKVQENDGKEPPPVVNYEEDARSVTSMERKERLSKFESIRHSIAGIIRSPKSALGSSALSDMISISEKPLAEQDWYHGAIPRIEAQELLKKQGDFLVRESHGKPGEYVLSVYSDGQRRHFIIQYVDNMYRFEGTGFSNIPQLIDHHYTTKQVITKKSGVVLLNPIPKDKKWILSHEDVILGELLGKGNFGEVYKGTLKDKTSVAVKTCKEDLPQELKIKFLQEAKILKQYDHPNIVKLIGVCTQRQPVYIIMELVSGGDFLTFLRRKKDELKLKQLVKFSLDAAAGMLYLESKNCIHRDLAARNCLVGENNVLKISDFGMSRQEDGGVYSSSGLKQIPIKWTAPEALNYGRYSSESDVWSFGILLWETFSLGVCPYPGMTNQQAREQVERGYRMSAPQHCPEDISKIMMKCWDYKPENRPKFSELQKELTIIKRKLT

[20] = target: Fibroblast growth factor receptor 2 (Homo sapiens) (UniProt P21802); conditions: Compound concentration 1000.0 nM
[21] = system: Receptor-type tyrosine-protein kinase FLT3 (Homo sapiens), P36888 [UNDEFINED MUTATION]; conditions: Compound concentration 1000.0 nM
[22] = system: Receptor-type tyrosine-protein kinase FLT3 (Homo sapiens), P36888 [N841I]; conditions: Compound concentration 1000.0 nM
[23] = target: G protein-coupled receptor kinase 4 (Homo sapiens) (UniProt P32298); conditions: Compound concentration 1000.0 nM
[24] = target: Homeodomain-interacting protein kinase 2 (Homo sapiens) (UniProt Q9H2X6); conditions: Compound concentration 1000.0 nM
[25] = system: Mast/stem cell growth factor receptor Kit (Homo sapiens), P10721 [D816H]; conditions: Compound concentration 1000.0 nM
[26] = system: Mast/stem cell growth factor receptor Kit (Homo sapiens), P10721 [V559D,T670I]; conditions: Compound concentration 1000.0 nM
Chain of Mast/stem cell growth factor receptor Kit (Homo sapiens), P10721 [V559D,T670I] (P10721 whole entry V559D/T670I, the tested form may be a part): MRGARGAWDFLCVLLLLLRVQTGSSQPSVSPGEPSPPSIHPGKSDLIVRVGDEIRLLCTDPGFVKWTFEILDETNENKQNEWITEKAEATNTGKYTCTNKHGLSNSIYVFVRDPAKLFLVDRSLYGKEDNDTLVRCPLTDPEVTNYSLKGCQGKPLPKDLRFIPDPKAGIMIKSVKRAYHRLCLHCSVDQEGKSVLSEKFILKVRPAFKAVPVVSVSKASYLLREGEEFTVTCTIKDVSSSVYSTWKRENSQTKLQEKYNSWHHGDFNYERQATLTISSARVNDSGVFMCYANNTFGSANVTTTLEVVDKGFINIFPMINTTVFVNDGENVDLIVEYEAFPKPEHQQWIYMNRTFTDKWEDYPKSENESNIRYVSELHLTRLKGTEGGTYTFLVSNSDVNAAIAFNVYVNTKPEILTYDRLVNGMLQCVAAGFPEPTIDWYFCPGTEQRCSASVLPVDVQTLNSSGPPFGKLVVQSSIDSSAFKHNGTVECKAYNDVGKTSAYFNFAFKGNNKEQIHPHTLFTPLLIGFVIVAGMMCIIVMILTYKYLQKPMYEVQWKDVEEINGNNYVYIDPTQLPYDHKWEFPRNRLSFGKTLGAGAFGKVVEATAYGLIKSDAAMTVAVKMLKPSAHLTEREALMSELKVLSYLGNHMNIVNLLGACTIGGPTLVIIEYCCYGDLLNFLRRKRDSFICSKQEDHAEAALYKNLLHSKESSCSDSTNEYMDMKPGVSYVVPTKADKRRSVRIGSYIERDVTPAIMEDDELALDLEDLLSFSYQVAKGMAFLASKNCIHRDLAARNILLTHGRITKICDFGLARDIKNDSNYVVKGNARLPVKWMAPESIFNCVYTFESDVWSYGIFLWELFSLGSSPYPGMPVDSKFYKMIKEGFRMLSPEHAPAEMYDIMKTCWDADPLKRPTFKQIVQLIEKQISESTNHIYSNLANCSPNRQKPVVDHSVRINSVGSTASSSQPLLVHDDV

[27] = target: LIM domain kinase 2 (Homo sapiens) (UniProt P53671); conditions: Compound concentration 1000.0 nM
[28] = target: MAP kinase-activated protein kinase 5 (Homo sapiens) (UniProt Q8IW41); conditions: Compound concentration 1000.0 nM
Chain of MAP kinase-activated protein kinase 5 (Homo sapiens) (Q8IW41 whole entry): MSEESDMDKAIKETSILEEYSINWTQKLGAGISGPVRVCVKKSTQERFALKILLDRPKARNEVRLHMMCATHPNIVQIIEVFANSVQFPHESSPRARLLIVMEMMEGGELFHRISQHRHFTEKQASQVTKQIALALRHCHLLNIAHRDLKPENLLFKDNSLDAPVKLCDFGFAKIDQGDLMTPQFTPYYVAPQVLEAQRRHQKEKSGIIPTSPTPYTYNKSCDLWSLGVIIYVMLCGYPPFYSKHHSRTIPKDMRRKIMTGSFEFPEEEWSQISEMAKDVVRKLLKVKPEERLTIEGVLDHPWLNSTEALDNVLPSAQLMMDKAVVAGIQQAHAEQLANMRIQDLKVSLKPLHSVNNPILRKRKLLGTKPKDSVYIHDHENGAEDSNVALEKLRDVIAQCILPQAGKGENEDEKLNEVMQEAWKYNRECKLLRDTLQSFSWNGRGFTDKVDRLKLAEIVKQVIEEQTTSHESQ

[29] = target: Serine/threonine-protein kinase MARK1 (Homo sapiens) (UniProt Q9P0L2); conditions: Compound concentration 1000.0 nM
[30] = target: Serine/threonine-protein kinase 24 (Homo sapiens) (UniProt Q9Y6E0); conditions: Compound concentration 1000.0 nM
Chain of Serine/threonine-protein kinase 24 (Homo sapiens) (Q9Y6E0 whole entry, looked up): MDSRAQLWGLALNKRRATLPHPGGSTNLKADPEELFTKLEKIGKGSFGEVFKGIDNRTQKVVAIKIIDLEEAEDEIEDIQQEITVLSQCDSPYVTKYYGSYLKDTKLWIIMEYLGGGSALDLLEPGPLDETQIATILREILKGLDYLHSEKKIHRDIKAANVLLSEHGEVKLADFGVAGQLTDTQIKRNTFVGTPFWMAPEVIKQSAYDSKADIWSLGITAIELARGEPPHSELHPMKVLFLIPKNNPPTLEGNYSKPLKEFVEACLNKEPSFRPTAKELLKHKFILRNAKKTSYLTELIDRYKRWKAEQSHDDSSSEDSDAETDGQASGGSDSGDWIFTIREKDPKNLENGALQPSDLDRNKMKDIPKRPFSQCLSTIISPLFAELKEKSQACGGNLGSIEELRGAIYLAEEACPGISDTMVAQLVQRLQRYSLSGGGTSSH

[31] = target: Serine/threonine-protein kinase 26 (Homo sapiens) (UniProt Q9P289); conditions: Compound concentration 1000.0 nM
[32] = target: Myosin light chain kinase 2, skeletal/cardiac muscle (Homo sapiens) (UniProt Q9H1R3); conditions: Compound concentration 1000.0 nM
[33] = target: Serine/threonine-protein kinase Nek4 (Homo sapiens) (UniProt P51957); conditions: Compound concentration 1000.0 nM
Chain of Serine/threonine-protein kinase Nek4 (Homo sapiens) (P51957 whole entry, looked up): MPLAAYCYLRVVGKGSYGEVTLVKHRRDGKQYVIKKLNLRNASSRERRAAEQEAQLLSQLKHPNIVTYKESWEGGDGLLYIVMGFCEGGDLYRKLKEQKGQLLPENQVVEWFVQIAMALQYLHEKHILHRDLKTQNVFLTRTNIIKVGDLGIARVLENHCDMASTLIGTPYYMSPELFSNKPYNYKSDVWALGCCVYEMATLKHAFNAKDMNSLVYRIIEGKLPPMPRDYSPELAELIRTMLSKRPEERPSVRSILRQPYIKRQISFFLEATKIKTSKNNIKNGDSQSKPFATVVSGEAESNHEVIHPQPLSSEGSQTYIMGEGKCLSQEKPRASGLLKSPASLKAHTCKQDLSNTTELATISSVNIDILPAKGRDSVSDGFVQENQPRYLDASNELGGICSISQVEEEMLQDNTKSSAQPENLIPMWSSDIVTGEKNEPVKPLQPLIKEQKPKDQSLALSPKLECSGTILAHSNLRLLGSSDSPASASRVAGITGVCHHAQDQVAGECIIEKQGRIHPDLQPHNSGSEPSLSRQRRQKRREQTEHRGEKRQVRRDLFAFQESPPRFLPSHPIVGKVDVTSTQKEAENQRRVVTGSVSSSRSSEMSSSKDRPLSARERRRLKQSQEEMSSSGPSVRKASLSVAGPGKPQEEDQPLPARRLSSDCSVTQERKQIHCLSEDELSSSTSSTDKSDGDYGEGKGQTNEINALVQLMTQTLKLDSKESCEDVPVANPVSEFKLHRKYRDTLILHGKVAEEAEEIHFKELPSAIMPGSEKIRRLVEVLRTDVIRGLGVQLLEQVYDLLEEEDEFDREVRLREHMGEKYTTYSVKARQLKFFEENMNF

[34] = target: Mitogen-activated protein kinase 14 (Homo sapiens) (UniProt Q16539); conditions: Compound concentration 1000.0 nM
Chain of Mitogen-activated protein kinase 14 (Homo sapiens) (Q16539 whole entry): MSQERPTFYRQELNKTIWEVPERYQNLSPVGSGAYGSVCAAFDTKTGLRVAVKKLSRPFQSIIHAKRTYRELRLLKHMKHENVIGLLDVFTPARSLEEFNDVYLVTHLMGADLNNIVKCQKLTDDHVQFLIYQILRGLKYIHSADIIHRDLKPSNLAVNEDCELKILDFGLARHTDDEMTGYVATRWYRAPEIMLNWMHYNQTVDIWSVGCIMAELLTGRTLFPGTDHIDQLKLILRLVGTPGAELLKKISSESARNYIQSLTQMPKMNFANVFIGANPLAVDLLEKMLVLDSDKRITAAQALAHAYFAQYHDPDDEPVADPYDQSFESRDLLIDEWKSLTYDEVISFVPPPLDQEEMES

[35] = target: Serine/threonine-protein kinase PAK 2 (Homo sapiens) (UniProt Q13177); conditions: Compound concentration 1000.0 nM
[36] = system: Phosphatidylinositol 4,5-bisphosphate 3-kinase catalytic subunit alpha isoform (Homo sapiens), P42336 [Q546K]; conditions: Compound concentration 1000.0 nM
[37] = target: Serine/threonine-protein kinase pim-1 (Homo sapiens) (UniProt P11309); conditions: Compound concentration 1000.0 nM

Row | Structure (SMILES) | % Inhibition of Control Values (Mean n=2) [1] | % Inhibition of Control Values (Mean n=2) [2] | % Inhibition of Control Specific Binding (Mean n=2) [3] | % Inhibition of Control Specific Binding (Mean n=2) [4] | % Inhibition of Control Specific Binding (Mean n=2) [5] | % Inhibition of Control Specific Binding (Mean n=2) [6] | % Inhibition of Control Specific Binding (Mean n=2) [7] | residual activity [8] | residual activity [9] | residual activity [10] | residual activity [11] | residual activity [12] | residual activity [13] | residual activity [14] | residual activity [15] | residual activity [16] | residual activity [17] | residual activity [18] | residual activity [19] | residual activity [20] | other results
1 | CCCOc1ccc([C@H]2[C@H](C(=O)O)[C@@H](c3ccc4c(c3)OCO4)CN2CC(=O)Nc2c(CC)cccc2CC)cc1 [A-192621] | 7% | 0.7% | 7.4% | -8.6% | -6.1% | 2.6% | -7.7% | 71% | 81% | 100% | 100% | 87% | 95% | 85% | 98% | 95% | 79% | 93% | 100% | 100% | residual activity [21]: 81%; residual activity [22]: 93%; residual activity [23]: 100%; residual activity [24]: 66%; residual activity [25]: 72%; residual activity [26]: 87%; residual activity [27]: 100%; residual activity [28]: 65%; residual activity [29]: 100%; residual activity [30]: 84%; residual activity [31]: 74%; residual activity [32]: 91%; residual activity [33]: 71%; residual activity [34]: 99%; residual activity [35]: 94%; residual activity [36]: 69%; residual activity [37]: 85%
2 | CCCOc1ccc([C@@H]2[C@@H](C(=O)O)[C@H](c3ccc4c(c3)OCO4)CN2CC(=O)Nc2c(CC)cccc2CC)cc1 [A-1806262] | 4% | 0.6% | 1.5% | -12.3% | -0.3% | 1.8% | 5.2% | 83% | 90% | 100% | 96% | 92% | 88% | 83% | 86% | 98% | 80% | 95% | 100% | 100% | residual activity [21]: 91%; residual activity [22]: 88%; residual activity [23]: 100%; residual activity [24]: 80%; residual activity [25]: 94%; residual activity [26]: 100%; residual activity [27]: 64%; residual activity [28]: 87%; residual activity [29]: 100%; residual activity [30]: 74%; residual activity [31]: 81%; residual activity [32]: 93%; residual activity [33]: 72%; residual activity [34]: 100%; residual activity [35]: 100%; residual activity [36]: 80%; residual activity [37]: 89%
